Entries after “also recorded” stand apart in the source; their conditions may differ.
Assays:
[1] = tested on: creeping bentgrass (Agrostis stolonifera); assay: Field study, Turf Quality (TQ) rating of treated plots; format: in vivo; details: ordinal scale 1-9 (8 and higher ideal, under 6 unacceptable), same plots, rates and timing, 15 days after final application
Method: (§1) A field study was conducted to identify which combinations would maintain or improve Turf Quality (TQ) and prevent or cure crown, basal or foliar pathogens such as dollar spot. Each solo treatment, 2-way (Pair), 3-way (Triad), and the present quaternary fungicidal mixture was applied bi-weekly beginning Jul. 1, 2013 prior to any evidence of decline in TQ or appearance of disease. Experimental plots were laid out in a Randomized Complete Block design.
(§2) The dosage of each fungicidal active substance was held constant regardless of whether it appeared alone or in combination with other fungicides in order to quantify synergy according to the Colby formula. The quaternary mixture of the present subject matter was applied at the lowest rate specified herein, about 5.5 lb active substance per acre. Applications were made to replicate plots of creeping bentgrass (Agrostis stolonifera), each measuring 3 ft×5 ft. The turf was mowed as needed to maintain standard fairway height (blade length less than 0.5″). Four applications were made at 14 day re-treatment intervals, which is a conventional treatment schedule at the time of year when outbreaks of turfgrass disease occur reliably in the mid-Atlantic region (Greenville, Del.).
The mix rate and volume of dilute spray applied to each plot was held constant. A CO2 backpack sprayer outfitted with TeeJet AI9504E flat fan nozzle delivered a water dilution of each treatment at the use rate of 43.5 gallons per acre (407 liters Ha^−1) and 35 psi (0.375 gallons per minute).
Plots were evaluated and disease or cause of lesion identified 15 days after the final scheduled application, which was made on 12 August. At that time researchers rated each plot's TQ, the incidence of disease and its severity. Percent disease ratings were calculated on the basis of the percent of area of each plot showing symptoms of a disease, primarily dollar spot. Turf quality and color ratings are typically used as an indicator of the health of the turfgrass. Turf quality is scored on an ordinal scale from 1-9, where plots rated 8 and higher are considered ideal for color, uniformity and density, around 6.5 and above is considered acceptable, and ratings under 6 unacceptable for turfgrass disease and/or turf quality.
Disease pressure evidenced by the untreated control ratings was considered severe. Six untreated control plots averaged 40% incidence, primarily due to a continuous increase in dollar spot pressure over time. By the end of the trial, TQ of the untreated plots declined to a low level, where leaf die-back, bleaching and lesions rated an average TQ of 4.2. Turf quality of plots treated with each active substance alone at these dosages was poor, averaging 3.9.

[2] = tested on: dollar spot, Sclerotinia homeocarpa; assay: Field study of disease control on creeping bentgrass plots (percent inhibition, Colby synergy); format: in vivo; details: four applications at 14 day intervals, rated 15 days after final application, chlorothalonil 3.1, iprodione 1.03, thiophanate methyl 1.03, tebuconazole 0.31 LBai/A where included
Source text: In the context of the present subject matter, the term “synergy” is as defined by S. R. Colby in an article entitled “Calculation of the synergistic and antagonistic responses of herbicide combinations” published in the journal Weeds, 1967, 15, p. 20-22, incorporated herein by reference in its entirety. The action expected for a given combination of four active components can be calculated as follows:
[formula] in which E represents the expected percentage of fungicidal control (percent inhibition) for the multiple mixture of fungicides at defined doses (for example equal to x, y, z and w, respectively). X is the percentage of fungicide control observed by chlorothalonil at a defined dose (equal to x). Y is the percentage of fungicide control observed by iprodione at a defined dose (equal to y). Z is the percentage of fungicide control observed by thiophanate methyl at a defined dose (equal to z). W is the percentage of fungicide control observed by tebuconazole at a defined dose (equal to w). Here, efficacy or percent inhibition is determined in %. 0% means efficacy that corresponds to the Control, i.e., as if no treatment had been applied. Whereas, a percent inhibition of 100% means that no infection is observed. When the percent inhibition observed for the combination is greater than E, there is a synergistic effect. When the percent inhibition observed for the combination is equal to E, there is an additive effect and wherein the percent inhibition observed for the combination is lower than E, there is an antagonistic effect.
In the Colby model, one can transform its use of “percent inhibition” (or control) to “percent-of-untreated Control” to solve for E1 rather than E and simplify the equation:
[formula] where E1=100−E (conversely, solving for E, 100−E1=E), X1=100−X, Y1=100−Y, Z1=100−Z, and W1=100−W. Although many combinations of fungicides have been studied and evaluated by means of the Colby Index, it is quite clear by modeling such synthetic expressions of synergy that the addition of a third, or even fourth, active ingredient to the premix may encounter the Point of Diminishing Returns caused by correction factors for 3- and 4-way interactions that offset the increase in E (or decrease in E1). In marked contrast, the present subject matter has shown an expansive effect and performance boost so great that differences between the observed and expected values computed according to Colby can best be used as a descriptive statistic confirming the quarternary fungicidal mixture's obvious effect.
as §1, §2
The mix rate and volume of dilute spray applied to each plot was held constant. […]

## N#Cc1c(Cl)c(Cl)c(Cl)c(C#N)c1Cl [Chlorothalonil]
[1]
  Turf Quality: 4.3
[2]
  Percent Inhibition: 15.8%

## CC(C)NC(=O)N1CC(=O)N(c2cc(Cl)cc(Cl)c2)C1=O [Iprodione]
[1]
  Turf Quality: 4.0
[1]; listed as iprodione
  Turf Quality: no better than the untreated control
[2]
  Percent Inhibition: 5.8%
[2]; listed as iprodione
  Percent Inhibition: no better than the untreated control

## CC(C)(C)C(O)(CCc1ccc(Cl)cc1)Cn1cncn1 (stereo not drawn) [Tebuconazole]
[1]
  Turf Quality: 4.0
[2]
  Percent Inhibition: 19.3%

## COC(=O)NC(=S)Nc1ccccc1NC(=S)NC(=O)OC [Thio methyl, Thiophanate methyl]
[1]
  Turf Quality: 3.3
[1]; listed as thiophanate methyl
  Turf Quality: no better than the untreated control; also recorded: significantly lower ratings than those of the untreated Control
[2]
  Percent Inhibition: 0%
[2]; listed as thiophanate methyl
  Percent Inhibition: no better than the untreated control

Source: US10729137B2, “Quaternary fungicidal mixture” (priority 2013, dated 2020)
